Results taken from article PMC11189555, “Aryl amino acetamides prevent Plasmodium falciparum ring development via targeting the lipid-transfer protein PfSTART1” (Nature Communications, 2024).

Test system: ring-stage parasites
Assay: Parasite reduction ratio assay
Type: cell-based, Plasmodium falciparum
Method: Parasite reduction ratio assay. This was performed as previously described 9,10.
Briefly, asynchronous ring -stage parasites at 0.5% parasitemia and 2% haematocrit were exposed to compounds at 10 x EC50 of growth for five days with daily drug renewal. After each 24 h, a well from each treatment group was taken and washed three times in complete RPMI and final volume adjusted to 2% haematocrit. The washed culture was then aliquoted into a 96 well U-bottom plate and a 1:3 serial dilution into fresh uninfected RBCs was performed with four technical replicates for each time point. Plates were maintained in normal culturing conditions: media was replaced, and fresh RBCs given 1-2 times a week for three weeks, after which parasite growth was measured via lactate dehydrogenase assays. The number of viable parasites was calculated using the formula xn-1 +1, where x is the dilution factor and n is the number of wells that contain parasite growth. The viable parasite value was then expressed in log units and parasite reduction ratio was calculated as a decrease in […]

CCN(CC)CCCC(C)Nc1ccnc2cc(Cl)ccc12 (centres unmarked) [CQ, chloroquine, reference compound]
killing profile (10xEC50: 75 nM CQ, 60 nM W-991): fast-acting | PRR (Replicate 1, PRR calculations): 4.528 | log(parasite viability) +1 (Replicate 1, T=1): 2.863 | Parasite viability (Replicate 1, T=1, 1:3 dilution): 729 | log(parasite viability) +1 (Replicate 1, T=2): 0.6021 | Parasite viability (Replicate 1, T=2, 1:3 dilution): 3 | log(parasite viability) +1 (Replicate 1, T=3): 0 | Parasite viability (Replicate 1, T=3, 1:3 dilution): 0 | log(parasite viability) +1 (Replicate 1, T=4): 0 | Parasite viability (Replicate 1, T=4, 1:3 dilution): 0 | log(parasite viability) +1 (Replicate 1, T=5): 0 | Parasite viability (Replicate 1, T=5, 1:3 dilution): 0 | log(parasite viability) +1 used in PRR calculations (Replicate 2, Hours 0): 5.248 | PRR (Replicate 2, PRR calculations): 2.861 | Parasite viability +1 (Replicate 2, T=1): 19684 | log(parasite viability) +1 (Replicate 2, T=1): 4.294 | Parasite viability (Replicate 2, T=1, 1:3 dilution): 19683 | Parasite viability +1 (Replicate 2, T=2): 10 | log(parasite viability) +1 (Replicate 2, T=2): 1 | Parasite viability (Replicate 2, T=2, 1:3 dilution): 9 | Parasite viability +1 (Replicate 2, T=3): 244 | log(parasite viability) +1 (Replicate 2, T=3): 2.387 | Parasite viability (Replicate 2, T=3, 1:3 dilution): 243 | Parasite viability +1 (Replicate 2, T=4): 82 | log(parasite viability) +1 (Replicate 2, T=4): 1.914 | Parasite viability (Replicate 2, T=4, 1:3 dilution): 81 | Parasite viability +1 (Replicate 2, T=5): 1 | log(parasite viability) +1 (Replicate 2, T=5): 0 | Parasite viability (Replicate 2, T=5, 1:3 dilution): 0 | log(parasite viability) +1 (replicate 3, 0 hours, start value (UT T=0) used in PRR calculations): 5.248 | Parasite viability (1:3 dilution) (replicate 3, T=1): 6561 | log(parasite viability) +1 (replicate 3, T=1): 3.817 | Parasite viability (1:3 dilution) (replicate 3, T=2): 9 | log(parasite viability) +1 (replicate 3, T=2 (48 hours in PRR calculations)): 1 | Parasite viability (1:3 dilution) (replicate 3, T=3): 0 | log(parasite viability) +1 (replicate 3, T=3 (72 hours in PRR calculations)): 0 | Parasite viability (1:3 dilution) (replicate 3, T=4): 0 | log(parasite viability) +1 (replicate 3, T=4): 0 | Parasite viability (1:3 dilution) (replicate 3, T=5): 0 | log(parasite viability) +1 (replicate 3, T=5 (120 hours in PRR calculations)): 0 | PRR (replicate 3, difference of log viability over 48 h (CQ 0-48 hours, W991 72-120 hours)): 4.248
